Experimental data taken from article PMC8584011, “Immunomodulatory Lectin-like Peptides for Fish Erythrocytes-Targeting as Potential Antiviral Drug Delivery Platforms” (International Journal of Molecular Sciences, 2021).

Key:
[1] = cited from earlier work
Text: In addition, our selected peptides were mainly found inside RBCs, instead of at the surface of the RBCs, as observed by confocal microscopy. […] In this contex ...

rabbit RBCs = settings: cited from earlier work
Text: (§1) Among the identified peptides in the literature, we selected three peptides based on their reported affinity to bind nucleated RBCs or mammalian RBCs. […] This peptide will be named in this article as 4341. Another selected peptide is a small peptide with lectin-like behavior, called odorranalectin (hereafter referred ...

human RBCs = settings: cited from earlier work
Text: as §1

rainbow trout RBCs [2] = assay: Antiviral gene expression in RBCs by RT-qPCR; assay type: cell-based, rainbow trout (Oncorhynchus mykiss); settings: 50 µM peptide, 6 h post-treatment at 14 °C, normalized to ef1α, relative to untreated RBCs
Experimental: Figure 3 Antiviral immunomodulation of the peptides in rainbow trout RBCs. Antiviral gene (ifit5, mx1-3, nkef, and vig1) expression quantified by RT-qPCR in RBCs at 6 h post-treatment (hpt) with 50 µM of each peptide. Gene expression was normalized against ef1α and relativized to control cells (RBCs untreated) (red line). Data represent the mean ± standard deviation (SD), n = 4. Mann–Whitney test was performed (* p < 0.05).
To evaluate the possible antiviral immunomodulatory effects of the peptides, ficoll-purified RBCs (10^6 cells/well) were incubated with 50 µM of 4341, 4342, 4343 Rhd-labeled peptides for 6 h at 14 °C. After that, RBCs were washed, and samples were stored in buffer for RNA extraction and RT-qPCR analysis (Figure 5).
The E.Z.N.A.® Total RNA Kit (Omega Bio-Tek Inc., Norcross, GA, USA) was used for RNA isolation according to the manufacturer’s instructions. Subsequent DNAse treatment was done using TURBO™ DNase (Ambion, Thermo Fisher Scientific, Waltham, MA USA) to eliminate possible residual genomic DNA. RNA was quantified with a NanoDrop Spectrophotometer (Nanodrop Technologies, Wilmington, DE, USA). Then, cDNA synthesis from RNA was performed using M-MLV reverse transcriptase (Invitrogen, Thermo Fisher Scientific) as previously described.
To evaluate the gene expression of RBCs treated with 50 µM of the three Rhd-labeled peptides, RT-qPCR was carried out using the QUANTSTUDIO 3 System (Applied Biosystems, Thermo Fisher Scientific Inc.). Gene expression was analyzed by the 2^–ΔΔCt method. The ef1α gene was used as endogenous control.

rainbow trout RBCs [3] = assay: In vitro binding of Rhd-labeled peptides to RBCs, flow cytometry (iMFI); assay type: cell-based, rainbow trout (Oncorhynchus mykiss); settings: 100 µM Rhd-labeled peptide, 90 min at 14 °C, 10^5 cells/well, mean ± SD n = 3, ranking of peptides
Experimental: In order to evaluate the binding of the peptides for RBCs, we carried out a dose-response assay using a concentration range from 25 to 100 µM. The binding of the Rhodamine (Rhd)-labeled peptides was evaluated by means of flow cytometry and calculated as the integrated median fluorescence intensity (iMFI), which is computed by multiplying the relative frequency (% positive) of cells with the median fluorescence intensity (MFI) of that population. […] Besides, hemagglutination was not observed at the concentrations of peptides used (Supplementary Figure S1). Cell toxicity was not observed neither in vitro nor in vivo at the maximum concentration of peptides used (Supplementary Figure S2).
Figure 1 Peptide binding to rainbow trout RBCs in vitro, evaluated by means of flow cytometry. (a) Integrated median fluorescence intensity (iMFI) (% positive cells × MFI) of rainbow trout RBCs treated with different peptide concentrations, 90 min after incubation, analyzed by flow cytometry. Data represent the mean ± standard deviation (SD), n = 3. […]
Ficoll-purified RBCs (10^5 cells/well) were treated with 25, 50, and 100 µM of 4341, 4342, 4343 Rhd-labeled peptides, and incubated for 90 min at 14 °C. Then, RBCs were washed with 200 µL of RPMI 2% FBS and analyzed by flow cytometry, fluorescent microscopy, and confocal microscopy as described below (Figure 5). […]

rainbow trout RBCs [4] = assay: Confocal microscopy of peptide-RBC binding / presence inside the cell; assay type: cell-based, rainbow trout (Oncorhynchus mykiss); settings: 90 min incubation with Rhd-labeled peptides, Hoechst and CellMask Green staining
Experimental: Figure 2 Volume 3D reconstruction of the visualization of the peptides binding to rainbow trout RBCs. Rhd-labeled peptides are represented in red, nuclei were stained with Hoescht and are represented in blue, and cell membrane was stained using CellMask Green and is represented in beige. The images were taken at 63× magnification. Confocal images were processed using the ZEN 3.2 (Blue edition). Volume rendering was performed with IMARIS v9.3. Upper images represent plan view and lower images represent perspective view.
Confocal microscopy was performed to evaluate peptide-RBCs binding in vitro. After 90 min of incubation with Rhd-labeled peptides, RBCs were washed, and nuclei were stained with Hoechst (1 μg/mL) (Sigma-Aldrich) and membrane was stained with CellMask Green (5 μg/mL) (Thermo Fischer Scientific). Images were taken with a Zeiss LSM900 with Airyscan 2 and analyzed with ZEN 3.2 (Blue edition) software (Zeiss, Oberkochen, Germany). Volume rendering was performed using IMARIS Software v9.3 (Bitplane, Zurich, Switzerland).

rainbow trout RBCs [5] = assay: In vivo binding of peptides to RBCs after i.v. injection, flow cytometry (iMFI); design: species or system rainbow trout (Oncorhynchus mykiss); settings: i.v. injection of 100 µM peptide in 50 µL, peripheral blood at 3 hpi, mean ± SD n = 3, ranking of peptides
Experimental: Figure 4 Peptide binding to rainbow trout RBCs in vivo, by means of flow cytometry. (a) Integrated median fluorescence intensity (iMFI) (% positive cells × MFI) of RBCs from blood of rainbow trout injected intravenously with the three selected peptides, 3 hpi with 100 µM of each peptide, analyzed by flow cytometry. Data represent the mean ± standard deviation (SD), n = 3. Kruskal–Wallis test with Dunn’s multiple comparison test was performed (p < 0.05). C means control RBCs. (b) Representative images of RBCs from blood of rainbow trout injected intravenously with the three selected peptides, 3 hpi with 100 µM of each peptide. The images were taken with the IN Cell Analyzer 6000 Cell Imaging system at 40× magnification. Peptides are labeled with Rhd (red). […]
Juvenile rainbow trout (7–10 g) were anesthetized with tricaine methanesulfonate, (Sigma-Aldrich, Madrid, Spain) (40 mg/L) and injected intravenously (i.v) with 100 µM of 4341, 4342, 4343 Rhd-labeled peptides in 50 µL of RMPI 2% FBS using insulin syringes. […] Then, blood samples were evaluated by means of flow cytometry and fluorescent microscopy as described below (Figure 6).
RBCs treated in vitro with the Rhd-labeled peptides and blood samples from individuals of rainbow trout injected with the three Rhd-labeled peptides were analyzed by flow cytometry using a FACS Canto II flow cytometer (BD Biosciences, Madrid, Spain). […]

Rhd-YASPKCFRYPNGVLACT [compound 4342, odorranalectin, Rhd-labeled small peptide with lectin-like behavior, called odorranalectin]
Stability in circulation [1]: high stability in circulation
Binding to rabbit RBCs (rabbit RBCs): bind
Binding to human RBCs (human RBCs): bind
mx1-3 gene expression (rainbow trout RBCs [2]; n = 4): slight and not statistically significant upregulation
ifit5 gene expression (rainbow trout RBCs [2]; n = 4, Mann–Whitney p < 0.05): statistically significantly upregulated
nkef gene expression (rainbow trout RBCs [2]; n = 4, not statistically significant): upregulated
Binding to RBCs (iMFI = % positive cells × MFI) (rainbow trout RBCs [3]): highest binding
Presence of peptide inside the cell (rainbow trout RBCs [4]): higher
Binding to RBCs in vivo (iMFI = % positive cells × MFI) (rainbow trout RBCs [5]): highest iMFI
